In experiment [1] the target is PD-L1 receptor (Mus musculus, UniProt Q9EP73). Description: Membrane receptor expression analysis using flow cytometry. Format: cell-based, murine. The following applies: 4T1, 500 nM, APC-conjugated PD-L1 antibody. On the technique in general: A flow cytometer gives signals particle by particle.
For experiment [2], the system named is CD47/SIRPα axis. Description: In vitro phagocytosis assay, BMDMs cocultured with CT26.CL25. Format: cell-based, BALB/c mice. Conditions: 30 min treatment of CT26.CL25, 200 nM; comparison of the two treated groups.

Two substances from article PMC10552107 (ACS Omega, 2023) can be followed below.

Sequence of PD-L1 receptor (Q9EP73 19-290): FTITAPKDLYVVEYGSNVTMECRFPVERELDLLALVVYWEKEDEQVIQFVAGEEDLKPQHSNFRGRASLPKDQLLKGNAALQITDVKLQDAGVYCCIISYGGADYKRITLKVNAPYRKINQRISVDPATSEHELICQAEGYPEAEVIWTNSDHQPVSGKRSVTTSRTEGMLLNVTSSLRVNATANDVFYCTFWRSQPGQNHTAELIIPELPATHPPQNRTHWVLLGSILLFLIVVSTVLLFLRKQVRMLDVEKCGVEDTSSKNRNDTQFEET

For D-peptide NYSKPTDRQYHF [PD-L1-ligand], the “PD-L1 expression (percentage of positive cells)” value in experiment [1] (1 h) is 3.29%; in experiment [1] (48 h), 7.82%.
For the substance “EEELQIIQPDKSVLVAAGETATLRCTITSLFPVGPIQWFRGAGPGRVLIYNQRQGPFPRVTTVSDTTKRNNMDFSIRIGNITPADAGTYYCIKFRKGSPDDVEFKSGAGTELSVRAKP [CD47-ligand]”, the “phagocytic index (%)” value in experiment [2] is listed as “similar”.
